Experimental data from patent US12077503B2, “Substituted cyclic amides and their use as herbicides” (FMC CORPORATION, priority 2015, dated 2024).

Experiments:
Assay type in all cases: in vivo
[1] = system: ryegrass, Italian (Italian ryegrass, Lolium multiflorum); experiment: Test A postemergence; details: Lolium multiflorum, post-emergence, 240 h, read-out: Plant response rating, Ryegrass, Italian; for pest or weed control at 125 g/ha: 125 g ai/ha, postemergence, visual injury after approximately 10 d, 0 to 100 scale (0 no effect, 100 complete control)
In short: (§1)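 In a loam soil and sand blend, planted seeds got a preemergence directed soil spray, and young plants at the one- to two-leaf stage, 2–10 cm high, got a postemergence application; ~10 d greenhouse hold; injury rated visually, 0 = none, 100 = complete control.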

[2] = system: giant foxtail (Setaria faberii); experiment: Test A postemergence; details: Setaria faberi, post-emergence, 240 h, read-out: Plant response rating, Foxtail, Giant; for pest or weed control at 125 g/ha: 125 g ai/ha, postemergence, visual injury after approximately 10 d, 0 to 100 scale (0 no effect, 100 complete control)
In short: as §1

[3] = system: barnyardgrass (Echinochloa crus-galli); experiment: Test A postemergence; details: Echinochloa crus-galli, post-emergence, 240 h, read-out: Plant response rating, Barnyardgrass; for pest or weed control at 125 g/ha: 125 g ai/ha, postemergence, visual injury after approximately 10 d, 0 to 100 scale (0 no effect, 100 complete control)
In short: as §1

Kochia (Kochia scoparia) [4] = experiment: Test A postemergence; details: Bassia scoparia, post-emergence, 240 h, read-out: Plant response rating, Kochia; for pest or weed control at 125 g/ha: 125 g ai/ha, postemergence, visual injury after approximately 10 d, 0 to 100 scale (0 no effect, 100 complete control)
In short: as §1

[5] = system: pigweed (Amaranthus retroflexus); experiment: Test A postemergence; details: Amaranthus retroflexus, post-emergence, 240 h, read-out: Plant response rating, Pigweed; for pest or weed control at 125 g/ha: 125 g ai/ha, postemergence, visual injury after approximately 10 d, 0 to 100 scale (0 no effect, 100 complete control)
In short: as §1

[6] = system: blackgrass (Alopecurus myosuroides); experiment: Test A postemergence; details: Alopecurus myosuroides, post-emergence, 240 h, read-out: Plant response rating, Blackgrass; for pest or weed control at 125 g/ha: 125 g ai/ha, postemergence, visual injury after approximately 10 d, 0 to 100 scale (0 no effect, 100 complete control)
In short: as §1

[7] = system: ragweed (common ragweed, Ambrosia elatior); experiment: Test A postemergence; details: Ambrosia artemisiifolia, post-emergence, 240 h, read-out: Plant response rating, Ragweed; for pest or weed control at 125 g/ha: 125 g ai/ha, postemergence, visual injury after approximately 10 d, 0 to 100 scale (0 no effect, 100 complete control)
In short: as §1

corn (Zea mays) = experiment: Test A postemergence; details: Zea mays, post-emergence, 240 h; for Corn plant response rating (crop injury, 0 = no effect, 100 = complete kill) at 125 g/ha: 125 g ai/ha, postemergence, visual injury after approximately 10 d, 0 to 100 scale (0 no effect, 100 complete control)
In short: as §1

[8] = system: Galium (catchweed bedstraw, Galium aparine); experiment: Test A postemergence; details: Galium, post-emergence, 240 h, read-out: Plant response rating, Galium; for pest or weed control at 125 g/ha: 125 g ai/ha, postemergence, visual injury after approximately 10 d, 0 to 100 scale (0 no effect, 100 complete control)
In short: as §1

[9] = system: wheat (Triticum aestivum); experiment: Test A postemergence; details: Triticum aestivum, post-emergence, 240 h, read-out: Plant response rating, Wheat; for plant injury at 125 g/ha: 125 g ai/ha, postemergence, visual injury after approximately 10 d, 0 to 100 scale (0 no effect, 100 complete control)
In short: as §1

[10] = system: ryegrass, Italian (Italian ryegrass, Lolium multiflorum); experiment: Test A preemergence; details: Lolium multiflorum, pre-emergence, 240 h; for pest or weed control at 125 g/ha: 125 g ai/ha, preemergence, visual rating after approx. 10 d, 0 to 100 scale where 0 is no effect and 100 is complete control; for pest or weed control at 500 g/ha: 500 g ai/ha, visual injury vs untreated controls after approximately 10 d, read-out: Ryegrass, Italian plant response rating (0 to 100 scale where 0 is no effect and 100 is complete control)
In short: as §1

[11] = system: giant foxtail (Setaria faberii); experiment: Test A preemergence; details: Setaria faberi, pre-emergence, 240 h; for pest or weed control at 125 g/ha: 125 g ai/ha, preemergence, visual rating after approx. 10 d, 0 to 100 scale where 0 is no effect and 100 is complete control; for pest or weed control at 500 g/ha: 500 g ai/ha, visual injury vs untreated controls after approximately 10 d, read-out: Foxtail, Giant plant response rating (0 to 100 scale where 0 is no effect and 100 is complete control)
In short: as §1

[12] = system: barnyardgrass (Echinochloa crus-galli); experiment: Test A preemergence; details: Echinochloa crus-galli, pre-emergence, 240 h; for pest or weed control at 125 g/ha: 125 g ai/ha, preemergence, visual rating after approx. 10 d, 0 to 100 scale where 0 is no effect and 100 is complete control; for pest or weed control at 500 g/ha: 500 g ai/ha, visual injury vs untreated controls after approximately 10 d, read-out: Barnyardgrass plant response rating (0 to 100 scale where 0 is no effect and 100 is complete control)
In short: as §1

Kochia (Kochia scoparia) [13] = experiment: Test A preemergence; details: Bassia scoparia, pre-emergence, 240 h; for pest or weed control at 125 g/ha: 125 g ai/ha, preemergence, visual rating after approx. 10 d, 0 to 100 scale where 0 is no effect and 100 is complete control; for pest or weed control at 500 g/ha: 500 g ai/ha, visual injury vs untreated controls after approximately 10 d, read-out: Kochia plant response rating (0 to 100 scale where 0 is no effect and 100 is complete control)
In short: as §1

[14] = system: ragweed (common ragweed, Ambrosia elatior); experiment: Test A preemergence; details: Ambrosia artemisiifolia, pre-emergence, 240 h; for pest or weed control at 125 g/ha: 125 g ai/ha, preemergence, visual rating after approx. 10 d, 0 to 100 scale where 0 is no effect and 100 is complete control; for pest or weed control at 500 g/ha: 500 g ai/ha, visual injury vs untreated controls after approximately 10 d, read-out: Ragweed plant response rating (0 to 100 scale where 0 is no effect and 100 is complete control)
In short: as §1

[15] = Postemergence, 31 g ai/ha, visual injury after approx. 10 d, 0 to 100 scale, 0 no effect, 100 complete control
[16] = read-out: Plant response rating, Ryegrass, Italian
[17] = read-out: Plant response rating, Foxtail, Giant
[18] = read-out: Plant response rating, Barnyardgrass
[19] = read-out: Plant response rating, Kochia
[20] = read-out: Plant response rating, Ragweed

COc1cc([C@H]2CN(C)C(=O)[C@@H]2C(=O)Nc2cccc(F)c2F)ccc1C(F)(F)F [Compound 770]
40%: pest or weed control at 125 g/ha (Kochia (Kochia scoparia) [4])
50%: Corn plant response rating (crop injury, 0 = no effect, 100 = complete kill) at 125 g/ha (corn (Zea mays))
90%: pest or weed control at 125 g/ha [11, 17] | pest or weed control at 31 g/ha ([11]; Preemergence, 31 g ai/ha, 0 to 100 scale (0 no effect, 100 complete control), read-out: Plant response rating, Foxtail, Giant) | pest or weed control at 125 g/ha [12, 18]
70%: pest or weed control at 125 g/ha [2] | pest or weed control at 31 g/ha ([12]; Preemergence, 31 g ai/ha, 0 to 100 scale (0 no effect, 100 complete control), read-out: Plant response rating, Barnyardgrass)
0%: pest or weed control at 125 g/ha [1] | pest or weed control at 31 g/ha [1, 15] | pest or weed control at 31 g/ha (Kochia (Kochia scoparia) [4]; [15]) | pest or weed control at 31 g/ha [5, 15] | pest or weed control at 125 g/ha [6] | pest or weed control at 31 g/ha [6, 15] | pest or weed control at 125 g/ha [7] | pest or weed control at 31 g/ha [7, 15] | Corn plant response rating (crop injury, 0 = no effect, 100 = complete kill) at 31 g/ha (corn (Zea mays); [15]) | plant injury at 125 g/ha [9] | plant injury at 31 g/ha [9, 15] | pest or weed control at 125 g/ha [10, 16] | pest or weed control at 31 g/ha ([10]; Preemergence, 31 g ai/ha, 0 to 100 scale (0 no effect, 100 complete control), read-out: Plant response rating, Ryegrass, Italian) | pest or weed control at 125 g/ha (Kochia (Kochia scoparia) [13]; [19]) | pest or weed control at 31 g/ha (Kochia (Kochia scoparia) [13]; Preemergence, 31 g ai/ha, 0 to 100 scale (0 no effect, 100 complete control), read-out: Plant response rating, Kochia) | pest or weed control at 125 g/ha [14, 20] | pest or weed control at 31 g/ha ([14]; Preemergence, 31 g ai/ha, 0 to 100 scale (0 no effect, 100 complete control), read-out: Plant response rating, Ragweed)
60%: pest or weed control at 31 g/ha [2, 15] | pest or weed control at 125 g/ha [3] | pest or weed control at 125 g/ha [8]
30%: pest or weed control at 31 g/ha [3, 15] | pest or weed control at 125 g/ha [5] | pest or weed control at 31 g/ha [8, 15]

CC(F)(F)c1cccc([C@H]2CNC(=O)[C@@H]2C(=O)Nc2cccc(F)c2F)c1 [Compound 779]
80%: pest or weed control at 125 g/ha [2] | Corn plant response rating (crop injury, 0 = no effect, 100 = complete kill) at 125 g/ha (corn (Zea mays)) | plant injury at 125 g/ha [9] | pest or weed control at 500 g/ha (Kochia (Kochia scoparia) [13]; Preemergence)
0%: pest or weed control at 125 g/ha [5]
90%: pest or weed control at 125 g/ha [3] | pest or weed control at 125 g/ha [11, 17] | pest or weed control at 500 g/ha ([11]; Preemergence) | pest or weed control at 125 g/ha [12, 18] | pest or weed control at 500 g/ha ([12]; Preemergence)
60%: pest or weed control at 125 g/ha [8]
40%: pest or weed control at 125 g/ha [1] | pest or weed control at 125 g/ha [10, 16] | pest or weed control at 500 g/ha ([10]; Preemergence)
20%: pest or weed control at 125 g/ha [7] | pest or weed control at 125 g/ha [14, 20]
70%: pest or weed control at 125 g/ha [6] | pest or weed control at 125 g/ha (Kochia (Kochia scoparia) [13]; [19]) | pest or weed control at 500 g/ha ([14]; Preemergence)
30%: pest or weed control at 125 g/ha (Kochia (Kochia scoparia) [4])

CC(F)(F)c1cccc([C@H]2CNC(=O)[C@@H]2C(=O)Nc2ccccc2S(C)(=O)=O)c1 [Compound 780]
50%: pest or weed control at 125 g/ha [6] | pest or weed control at 125 g/ha [8]
60%: pest or weed control at 125 g/ha [2] | pest or weed control at 125 g/ha [3]
70%: pest or weed control at 500 g/ha ([14]; Preemergence)
90%: pest or weed control at 125 g/ha [11, 17] | pest or weed control at 500 g/ha ([11]; Preemergence) | pest or weed control at 500 g/ha ([12]; Preemergence)
20%: pest or weed control at 500 g/ha ([10]; Preemergence)
40%: Corn plant response rating (crop injury, 0 = no effect, 100 = complete kill) at 125 g/ha (corn (Zea mays)) | pest or weed control at 125 g/ha (Kochia (Kochia scoparia) [13]; [19]) | pest or weed control at 125 g/ha [14, 20]
0%: pest or weed control at 125 g/ha [1] | pest or weed control at 125 g/ha [5] | pest or weed control at 125 g/ha [7] | pest or weed control at 125 g/ha [10, 16]
80%: pest or weed control at 125 g/ha [12, 18] | pest or weed control at 500 g/ha (Kochia (Kochia scoparia) [13]; Preemergence)
30%: pest or weed control at 125 g/ha (Kochia (Kochia scoparia) [4]) | plant injury at 125 g/ha [9]

CN1C[C@H](c2cc(F)cc(F)c2)[C@@H](C(=O)Nc2ncccc2F)C1=O [Compound 783]
30%: pest or weed control at 125 g/ha (Kochia (Kochia scoparia) [13]; [19])
0%: pest or weed control at 125 g/ha [1] | pest or weed control at 125 g/ha [2] | pest or weed control at 125 g/ha [3] | pest or weed control at 125 g/ha (Kochia (Kochia scoparia) [4]) | pest or weed control at 125 g/ha [5] | pest or weed control at 125 g/ha [6] | pest or weed control at 125 g/ha [7] | Corn plant response rating (crop injury, 0 = no effect, 100 = complete kill) at 125 g/ha (corn (Zea mays)) | pest or weed control at 125 g/ha [8] | plant injury at 125 g/ha [9] | pest or weed control at 125 g/ha [10, 16] | pest or weed control at 500 g/ha ([10]; Preemergence) | pest or weed control at 125 g/ha [11, 17] | pest or weed control at 125 g/ha [12, 18] | pest or weed control at 125 g/ha [14, 20] | pest or weed control at 500 g/ha ([14]; Preemergence)
50%: pest or weed control at 500 g/ha (Kochia (Kochia scoparia) [13]; Preemergence)
70%: pest or weed control at 500 g/ha ([12]; Preemergence)
80%: pest or weed control at 500 g/ha ([11]; Preemergence)
